The values below come from ChEMBL document CHEMBL1127266, “N-sulfonamides of benzopyran-related potassium channel openers: Conversion of glyburide insensitive smooth muscle relaxants to potent smooth muscle contractors” (Bioorg Med Chem Lett, 1994).

Where “and” joins values, the source holds several entries; their conditions need not be identical. Equal entries are not always repeated.

Type in all cases: functional
For experiment [1], the species on record is Rattus norvegicus. As to the kind of experiment: Percent activity at 30 uM as the increase (+) and/or decrease (-) in the contractile response for each individual experiment in rat bladder. The arrangement: scale not given: the % may be the effect or the level left.
Experiment [2] is filed under the species Rattus norvegicus. Nature of the experiment: In vitro evaluation for concentration to inhibit KCI (15 mM ) induced contractions of rat bladder.
The species entered for experiment [3] is Rattus norvegicus. Nature of the experiment: In vitro evaluation for concentration to inhibit KCI (25 mM ) induced contractions of rat aorta.
Experiment [4] is filed under the species Rattus norvegicus. As to the kind of experiment: Percent glyburide reversibility as potassium channel (K ATP) opening activity assay.

With `CC1(C)Oc2ccc(OC(F)(F)F)cc2[C@@H](NS(=O)(=O)c2ccccc2)[C@@H]1O`, the Activity in the experiment listed under Rattus norvegicus [1] stood at 44%.
As for `CC1(C)Oc2ccc(OC(F)(F)F)cc2[C@@H](NS(=O)(=O)C(F)(F)F)[C@@H]1O` (stereo in doubt; 8) [listing 1 of 2 here], the IC50 in the experiment filed under Rattus norvegicus [2] came out at 3.6 µM; in the experiment filed under Rattus norvegicus [3], 2 µM.
For `CC1(C)Oc2ccc(OC(F)(F)F)cc2[C@@H](N2Cc3ccccc3C2=O)[C@@H]1O` [CELIKALIM], in the experiment filed under Rattus norvegicus [4], the GR was 80% and 55%. The concentration for half-maximal inhibition (IC50) worked out at 0.03 µM in the experiment listed under Rattus norvegicus [2] (Rattus norvegicus) and 0.013 µM in the experiment listed under Rattus norvegicus [3] (Rattus norvegicus, Aorta).
`CC1(C)Oc2ccc(OC(F)(F)F)cc2[C@@H](NS(=O)(=O)c2cccnc2)[C@@H]1O` came in with an Activity in the experiment listed under Rattus norvegicus [1] of 133%.
The same measure, in the same setting: next, `CC1(C)Oc2ccc(OC(F)(F)F)cc2[C@@H](NS(=O)(=O)c2cccc3ccccc23)[C@@H]1O`: 52%.
On to `CC1(C)Oc2ccc(OC(F)(F)F)cc2[C@@H](NS(C)(=O)=O)[C@@H]1O`, for which, in the experiment filed under Rattus norvegicus [1], the Activity is 3%. In the experiment listed under Rattus norvegicus [4], this compound returned a GR of 8%.
In the experiment listed under Rattus norvegicus [1], `CN([C@@H]1c2cc(OC(F)(F)F)ccc2OC(C)(C)[C@H]1O)S(=O)(=O)C(F)(F)F` showed an Activity of 352%.
With `CC1(C)Oc2ccc(OC(F)(F)F)cc2[C@H](NS(=O)(=O)c2ccc([N+](=O)[O-])cc2)[C@H]1O`, in the experiment filed under Rattus norvegicus [1], the Activity is 4.68%. This compound also displayed a GR in the experiment filed under Rattus norvegicus [4] of 0%.
Consider `CC1(C)C[C@H](NS(=O)(=O)C(F)(F)F)c2cc(OC(F)(F)F)ccc2O1`, for which the GR in the experiment filed under Rattus norvegicus [4] was 41%. In addition, the IC50 amounted to 6.2 µM in the experiment listed under Rattus norvegicus [2] (Rattus norvegicus) and 10.7 µM in the experiment listed under Rattus norvegicus [3] (Rattus norvegicus, Aorta).
In the experiment filed under Rattus norvegicus [4], `CC1(C)Oc2ccc(OC(F)(F)F)cc2[C@@H](NS(=O)(=O)C(F)(F)F)[C@@H]1O` (stereo in doubt; 8) [listing 2 of 2 here] gave a GR of 0%.
Consider `CC1(C)Oc2ccc(C#N)cc2[C@H](N2CCCC2=O)[C@H]1O` (single isomer, unassigned) [(-)-CROMAKALIM], for which the GR in the experiment listed under Rattus norvegicus [4] was 68% and 75%. Further, the IC50 in the experiment listed under Rattus norvegicus [2] (Rattus norvegicus) amounted to 0.15 µM; in the experiment listed under Rattus norvegicus [3] (Rattus norvegicus, Aorta), 0.06 µM.
Turning to `CC1(C)Oc2ccc(OC(F)(F)F)cc2[C@@H](NS(=O)(=O)CCl)[C@@H]1O`, the Activity in the experiment filed under Rattus norvegicus [1] was 39%.
As for `CC1(C)Oc2ccc(OC(F)(F)F)cc2[C@@H](NS(=O)(=O)C(F)(F)F)[C@@H]1O` (stereo in doubt; 1) [listing 1 of 2 here], the values for the IC50 in the experiment filed under Rattus norvegicus [2] (Rattus norvegicus) and in the experiment filed under Rattus norvegicus [3] were 4.6 µM and 8 µM, respectively.
`CC1(C)Oc2ccc(OC(F)(F)F)cc2[C@@H](NS(=O)(=O)c2ccc([N+](=O)[O-])cc2)[C@@H]1O` gave an Activity in the experiment listed under Rattus norvegicus [1] of 195%.
Turning to `CC1(C)Oc2ccc(OC(F)(F)F)cc2[C@H](NS(=O)(=O)C(F)(F)F)[C@H]1O`, the GR in the experiment listed under Rattus norvegicus [4] came to 0%. The half-inhibitory concentration (IC50) is 7.1 µM in the experiment filed under Rattus norvegicus [2] (Rattus norvegicus) and 2.6 µM in the experiment listed under Rattus norvegicus [3] (Rattus norvegicus, Aorta).
Turning to `CC1(C)Oc2ccc(OC(F)(F)F)cc2[C@@H](NS(=O)(=O)C(F)(F)F)[C@@H]1O` (stereo in doubt; 1) [listing 2 of 2 here], the GR in the experiment listed under Rattus norvegicus [4] is 14% and 2%.

The IC50 is the concentration needed to halve the response being measured.
